For the test, the target named is T1, human NOX4 (Homo sapiens, UniProt Q9NPH5).
T1 construct: The full-length human NOX4 (NM_016931.3) transcript was cloned; expressed in transfected cells
T1 sequence (Q9NPH5 1-578): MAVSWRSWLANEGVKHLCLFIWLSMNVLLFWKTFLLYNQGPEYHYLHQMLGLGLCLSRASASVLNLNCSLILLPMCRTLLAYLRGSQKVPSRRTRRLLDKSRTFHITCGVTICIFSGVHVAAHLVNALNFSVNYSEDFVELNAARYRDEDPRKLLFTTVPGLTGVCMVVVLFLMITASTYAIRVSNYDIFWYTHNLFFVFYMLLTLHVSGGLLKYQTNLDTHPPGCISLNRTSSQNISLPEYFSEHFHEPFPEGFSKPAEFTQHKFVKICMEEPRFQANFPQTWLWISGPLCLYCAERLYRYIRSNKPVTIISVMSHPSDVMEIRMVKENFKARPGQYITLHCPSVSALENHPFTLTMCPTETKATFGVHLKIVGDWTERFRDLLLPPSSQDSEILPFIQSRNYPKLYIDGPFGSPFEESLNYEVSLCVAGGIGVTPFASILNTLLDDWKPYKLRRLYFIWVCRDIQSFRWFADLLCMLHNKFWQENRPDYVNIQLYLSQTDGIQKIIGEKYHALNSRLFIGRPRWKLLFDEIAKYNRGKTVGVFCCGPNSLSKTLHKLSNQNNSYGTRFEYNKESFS
T1 sequence (P13498 1-195 partner): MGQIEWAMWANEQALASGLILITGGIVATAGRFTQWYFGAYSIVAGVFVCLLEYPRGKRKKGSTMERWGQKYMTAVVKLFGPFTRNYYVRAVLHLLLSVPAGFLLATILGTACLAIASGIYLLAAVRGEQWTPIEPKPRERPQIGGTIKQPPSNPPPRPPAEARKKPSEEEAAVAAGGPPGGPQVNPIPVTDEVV
Put plainly: Amplex Red activity assay (cellular H2O2 formation in hNOX4 T-REx-293 cells). The conditions noted are these: tet-induced 24 h, extracellular H2O2 by Amplex Red, 60 min 25° C., geometric mean if determined several times. Type of test: cell-based. In short, it runs like this:
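Tet-induced (1 μg/mL, 24 h) HEK293 T-REx cells stably expressing full-length human NOX4, 20 000 cells/well, exposed to compounds (10 concentrations, 50 μM to 100 nM; 1.25% DMSO) for 60 min at 25°C. Extracellular H2O2 detected by Amplex Red resorufin fluorescence (ex 550/em 600 nm) versus vehicle; IC50 calculated.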

The results in this text go back to US11136317B2, “NADPH oxidase 4 inhibitors” (ACTELION PHARMACEUTICALS LTD, priority 2015, dated 2021).

For orientation: IC50 means the concentration that gives 50% inhibition.

Take `O=C(Nc1ccc2oc(N3CCCCC3)nc2c1)c1ccc2c(c1)OCCO2` [Example 166, 2,3-Dihydro-benzo[1,4]dioxine-6-carboxylic acid (2-piperidin-1-yl-benzooxazol-5-yl)-amide]: the IC50 stood at 1500 nM.

For the compound `O=C(Nc1ccc2oc(N3CCC(O)CC3)nc2c1)c1ccc2c(c1)OCCO2` [Example 167, 2,3-Dihydro-benzo[1,4]dioxine-6-carboxylic acid [2-(4-hydroxy-piperidin-1-yl)-benzooxazol-5-yl]-amide], the IC50 was found to be 1220 nM.

With `O=C(Nc1ccc2oc(N3CCCC(F)(F)C3)nc2c1)c1ccc2c(c1)OCCO2` [Example 168, 2,3-Dihydro-benzo[1,4]dioxine-6-carboxylic acid [2-(3,3-difluoro-piperidin-1-yl)-benzooxazol-5-yl]-amide], the IC50 came to 1140 nM.

With `COC1CCN(c2nc3cc(NC(=O)c4ccc5c(c4)OCCO5)ccc3o2)CC1` [Example 169, 2,3-Dihydro-benzo[1,4]dioxine-6-carboxylic acid [2-(4-methoxy-piperidin-1-yl)-benzooxazol-5-yl]-amide], the IC50 came to 793 nM.

With `O=C(Nc1ccc2oc(N3CCC(F)(F)CC3)nc2c1)c1ccc2c(c1)OCCO2` [Example 170, 2,3-Dihydro-benzo[1,4]dioxine-6-carboxylic acid [2-(4,4-difluoro-piperidin-1-yl)-benzooxazol-5-yl]-amide], the IC50 stood at 899 nM.

Regarding `O=C(Nc1ccc2oc(N3CCCC4(COC4)C3)nc2c1)c1ccc2c(c1)OCCO2` [Example 171, 2,3-Dihydro-benzo[1,4]dioxine-6-carboxylic acid [2-(2-oxa-6-aza-spiro[3.5]non-6-yl)-benzooxazol-5-yl]-amide], the IC50 came out at 792 nM.

As to `O=C(Nc1ccc2oc(N3CCC4(CC3)COC4)nc2c1)c1ccc2c(c1)OCCO2` [Example 172, 2,3-Dihydro-benzo[1,4]dioxine-6-carboxylic acid [2-(2-oxa-7-aza-spiro[3.5]non-7-yl)-benzooxazol-5-yl]-amide], the IC50 amounted to 8850 nM.

As to `O=C(Nc1ccc2oc(N3CCOCC3)nc2c1)c1ccc2c(c1)OCCO2` [Example 173, 2,3-Dihydro-benzo[1,4]dioxine-6-carboxylic acid (2-morpholin-4-yl-benzooxazol-5-yl)-amide], the IC50 is 1420 nM.

Consider `CN1CCN(c2nc3cc(NC(=O)c4ccc5c(c4)OCCO5)ccc3o2)CC1` [Example 174, 2,3-Dihydro-benzo[1,4]dioxine-6-carboxylic acid [2-(4-methyl-piperazin-1-yl)-benzooxazol-5-yl]-amide], for which the IC50 is 1390 nM.

With `CCN(CC)c1nc2cc(NC(=O)c3ccc4c(c3)OCCO4)ccc2o1` [Example 175, 2,3-Dihydro-benzo[1,4]dioxine-6-carboxylic acid (2-diethylamino-benzooxazol-5-yl)-amide], the IC50 came to 1350 nM.

Consider `O=C(Nc1ccc2oc(N(C3CC3)C3COC3)nc2c1)c1ccc2c(c1)OCCO2` [Example 176, 2,3-Dihydro-benzo[1,4]dioxine-6-carboxylic acid [2-(cyclopropyl-oxetan-3-yl-amino)-benzooxazol-5-yl]-amide], for which the IC50 turned out to be 2970 nM.

With `CN1CCOc2ccc(C(=O)Nc3ccc4oc(N5CC(O)C5)nc4c3)cc21` [Example 177, 4-Methyl-3,4-dihydro-2H-benzo[1,4]oxazine-6-carboxylic acid [2-(3-hydroxy-azetidin-1-yl)-benzooxazol-5-yl]-amide], the IC50 turned out to be 6870 nM.

For `CN1CCOc2ccc(C(=O)Nc3ccc4oc(N5CC(F)(F)C5)nc4c3)cc21` [Example 178, 4-Methyl-3,4-dihydro-2H-benzo[1,4]oxazine-6-carboxylic acid [2-(3,3-difluoro-azetidin-1-yl)-benzooxazol-5-yl]-amide], the half-inhibitory concentration (IC50) came out at 21800 nM.

On to `CN1CCOc2ccc(C(=O)Nc3ccc4oc(N5CCC56CCC6)nc4c3)cc21` [Example 179, 4-Methyl-3,4-dihydro-2H-benzo[1,4]oxazine-6-carboxylic acid [2-(1-aza-spiro[3.3]hept-1-yl)-benzooxazol-5-yl]-amide], for which the IC50 was determined as 1740 nM.
